“Also recorded” adds a separate entry of the source.
Experiments:
[1] = test system: hES SA121 cells; assay: OCT4 and SOX17 protein ICC quantification during DE induction, DEF culture system; type: cell-based, human; settings: CHIR 3 μM D1 then Activin A D2-3, or D'Amour protocol
Procedure: Human embryonic stem (hES) cells SA121 and […]) were grown on human fibronectin (Sigma) in DEF culture media (Cellartis) with 30 ng/ml bFGF (Invitrogen) and 10 ng/ml Noggin (Peprotech) in 6-96 well plates. Cells were single cell passaged with Rock inhibitor Y-27632 (Calbiochem) and seeded at a density of 40000 cells/cm2 for experiments. Experiments were initiated 4 d after passage. Confluent cultures were washed once in RPMI1640 (Invitrogen) before 24 hour pre-treatment with 0,5-7μM CHIR99021 (Stemgent) in RPMI. Control cells were left untreated in RPMI and D'Amour cells were either left in RPMI or treated with AA (Peprotech)+Wnt3a (R&D Systems) without pre-treatment depending on experimental setup. After 24 hours, pretreated and control cells were washed once with RPMI before adding 100 ng/ml AA in RPMI. D'Amour cells were also treated with 100 ng/ml AA but with 0,2% FBS instead of B27. 24 h later, 2% B27 (Invitrogen) was added to the AA media for 2-3 d. Control cells were treated with B27 to prevent cell death and D'Amour cells with 2% FBS according to published protocol. Media was changed every day. • Day 1: Cells were washed carefully in prewarmed (37° C.) RPMI before starting the differentiation. Day1 medium was premixed (CHIR 3 μM in prewarmed RPMI+PEST) and gently added to cell culture. Volumes were adjusted according to plate formats. • Day 2: Cells were washed carefully in prewarmed (37° C.) RPMI before media change. Day2 medium was premixed (100 ng/ml Activin A in prewarmed RPMI+0.1% PEST) and gently added to cell culture. • Day 3: Day3&4 mediums were premixed (100 ng/ml Activin A and 2% B27 in prewarmed RPMI+0.1% PEST) and gently added to cell culture. • Day 4: DE was harvested or reseeded for further differentiation. Cells were checked under the microscope every day. Cells were washed in PBS+/+ and fixed in 4% formaldehyde for 30 min (10% formaline, VWR). The cells were then washed again three times in PBS and left in PBS (4° C.) until staining. Fixed cells were washed with PBS once, then permeabilized with 0.5% Triton X-100 in PBS for 6 min, washed in PBS and blocked with TNB buffer (0.1 M Tris-HCL pH 7.5, 0.15 M NaCl, 0.5% Blocking Reagent (Perkin Elmer)) for 30 min. Primary antibodies (goat-anti-SOX17 (AF1924, RnD Systems); goat-anti-Brachyury (AF2085, RnD Systems); mouse-anti-OCT4 (sc5279, SantaCruz Biotechnology); goat-anti-PDX1 (AB47383, Abcam)) were added in 0.1% TritonX-100+PBS for 1 h in RT or 4° C. O/N. After a thorough washing step in PBS, secondary antibodies were added together with DAPI in 0.1% Triton X-100+PBS for 45 min at RT, washed thoroughly in PBS and left in PBS until photodocumentation.

[2] = test system: SA121 hES and chIPS4 iPS cells; assay: Quantitative real-time PCR of PS and DE markers (Brachyury, SOX17) during DE induction; type: cell-based, human
Procedure: Human embryonic stem (hES) cells SA121 and chIPS4 (Cellartis) were grown on human fibronectin (Sigma) in DEF culture media (Cellartis) with 30 ng/ml bFGF (Invitrogen) and 10 ng/ml Noggin (Peprotech) in 6-96 well plates. Cells were single cell passaged with Rock inhibitor Y-27632 (Calbiochem) and seeded at a density of 40000 cells/cm2 for experiments. Experiments were initiated 4 d after passage.
Confluent cultures were washed once in RPMI1640 (Invitrogen) before 24 hour pre-treatment with 0,5-7μM CHIR99021 (Stemgent) in RPMI. Control cells were left untreated in RPMI and D'Amour cells were either left in RPMI or treated with AA (Peprotech)+Wnt3a (R&D Systems) without pre-treatment depending on experimental setup.
After 24 hours, pretreated and control cells were washed once with RPMI before adding 100 ng/ml AA in RPMI. D'Amour cells were also treated with 100 ng/ml AA but with 0,2% FBS instead of B27. 24 h later, 2% B27 (Invitrogen) was added to the AA media for 2-3 d. Control cells were treated with B27 to prevent cell death and D'Amour cells with 2% FBS according to published protocol. Media was changed every day.
RNA samples were collected after 24 h pre-treatment (D1), after 1 day of AA treatment (D2) and after 1-2 d of AA+B27 treatment (D3-4). Total RNA was extracted with the Rneasy Plus Mini kit (Qiagen) and quantitative real-time PCR was performed using the StepOnePLus system (Applied Biosystems).
Undifferentiated SA121 hES and chIPS4 iPS cells in DEF media (DO) were cultured either in RPMI without CHIR (Ctrl D1) or treated for 24 h with CHIR in RPMI (CHIR D1). The cells were then washed to ensure absence of CHIR and then both conditions were treated with 1 d AA (Ctrl and CHIR d2). […] T fold inductions after 24 h CHIR treatment spanned between 500-100000 compared to undifferentiated cells (d0). T protein levels were also confirmed with ICC (FIG. 2C).
The efficiency levels for both T and SOX17 were highly robust (n>60) and confirmed with IHC and SOX17 quantifications (FIG. 2C and Table 2.). […] SOX17 expression peaked already after one day of AA treatment when cells were subjected to CHIR for 24 h before AA induction.
hES SA121 and ChIPS4 cells were treated with either CHIR (3 μM), BIO (0.5 μM), Wnt3a (200 ng/ml) or AA alone (100 ng/ml) for 24 h prior to AA addition to show CHIR specificity (d1). Additionally, D'Amour (protocol as described in Kroon et al 2008) was tested in parallel.
Chir was titrated at concentrations between 1-7 uM and analyzed after 24 h Chir treatment (D1) and after 2 d of following AA treatment (D3).

[3] = 24 h CHIR (2-7 μM) in RPMI-1640, then AA containing medium

- Brachyury (T) fold induction compared to undifferentiated cells ([2]; after 24 h CHIR treatment (D1), n>60): 500-100000 fold
Structure (SMILES): Cc1c[nH]c(-c2cnc(NCCNc3ccc(C#N)cn3)nc2-c2ccc(Cl)cc2Cl)n1 [CHIR, CHIR99021]
- OCT4 ICC % positive cells ([1]; SA121, D1): 97.7%
- SOX17 ICC % positive cells ([1]; SA121, D1): 0%
- OCT4 ICC % positive cells ([1]; SA121, D2): 2.4%
- SOX17 ICC % positive cells ([1]; SA121, D2): 72.1%
- OCT4 ICC % positive cells ([1]; SA121, D3): 0.2%
- SOX17 ICC % positive cells ([1]; SA121, D3): 93.1%
- time of SOX17 mRNA expression peak [2, 3]: 2 days
- time of SOX17 protein expression peak [2, 3]: 3 to 4 days
- Sox17 expression ([2]; CHIR 1 uM, 2 d after AA treatment (D3)): significantly lower
- Brachyury induction ([2]; CHIR 3 uM, after 24 h treatment (D1)): significantly seen; also recorded: significantly upregulated
- DE induction after subsequent AA stimulation ([2]; CHIR concentrations below 2 μM, after 72 hrs): not induced

Reference: patent publication US10487313B2, “Efficient induction of definitive endoderm from pluripotent stem cells” (Novo Nordisk A/S, priority 2011, dated 2019)
